According to patent US20060105375A1, “Bioretrosynthetic methods for preparing products and compositions related thereto” (priority 2004, published 2006):
Like-named read-outs stand apart in the source and are kept apart here.

Key:
[1] = test system: E. coli BL21(DE3) expressing mutant HPRT; experiment: Time course sensitivity determination by triazole dilution assay of HPRT mutant clones; type: cell-based; conditions: growth-impaired HPRT mutant clones, FIG. 22A
Source text: FIG. 22A is a graph of time course of sensitivity of clones identified by triazole sensitivity screening methodology. FIG. 22B is a SDS-PAGE gel of expression and nickel affinity purification of 8B3 HPRT. Left is cell-free extract and right is purified 8B3.
It is widely appreciated that ribavirin is a broad-spectrum antiviral nucleoside analog. […] This would form the basis of a ready-made survival based bioassay for ribavirin-1-phosphate biosynthesis directed evolution (FIG. 20). In this selection scheme an E. coli library containing variants of the purine salvage enzyme hypoxanthine phosphoribosyltransferase (HPRT) is replicated into M9 media supplemented with 1,2,4-triazole carboxamide 7 “protoxin.” Active enzymes react triazole with endogenous PRPP 8 to form ribavirin monophosphate 5, an IMPDH poison resulting in growth inhibition. […] Subsequently, a library of mutagenized HPRT in E. coli was evaluated. […]
A small mutant library of ca. 1000 members was replica plated into 96-well plates containing minimal medium (M9), kanamycin and 200 μM synthetically prepared 1,2,4-triazole carboxamide (2), a concentration found to be non-lethal to transformed E. coli BL21(DE3) under these conditions. […] The mutant and wild type HPRT enzymes were expressed as His×6 tagged proteins and purified to homogeneity (FIG. 22B).

[2] = test system: transformed E. coli BL21(DE3); experiment: Growth of transformed E. coli in minimal medium (M9) with 1,2,4-triazole carboxamide protoxin; type: cell-based; conditions: 200 μM, kanamycin, 96-well plates
Source text: It is widely appreciated that ribavirin is a broad-spectrum antiviral nucleoside analog. […] This would form the basis of a ready-made survival based bioassay for ribavirin-1-phosphate biosynthesis directed evolution (FIG. 20). In this selection scheme an E. coli library containing variants of the purine salvage enzyme hypoxanthine phosphoribosyltransferase (HPRT) is replicated into M9 media supplemented with 1,2,4-triazole carboxamide 7 “protoxin.” Active enzymes react triazole with endogenous PRPP 8 to form ribavirin monophosphate 5, an IMPDH poison resulting in growth inhibition. Negative controls with synthetically prepared 1,2,4-triazole carboxamide 7 and complementation experiments with guanosine monophosphate confirmed the validity of this method. Subsequently, a library of mutagenized HPRT in E. coli was evaluated. The assay can be improved by adding nutrients to the medium.
A small mutant library of ca. 1000 members was replica plated into 96-well plates containing minimal medium (M9), kanamycin and 200 μM synthetically prepared 1,2,4-triazole carboxamide (2), a concentration found to be non-lethal to transformed E. coli BL21(DE3) under these conditions. Plates were grown for 5 days at 37° C. and cell growth was visualized by staining with tetrazolium blue. […] The mutant and wild type HPRT enzymes were expressed as His×6 tagged proteins and purified to homogeneity (FIG. 22B).

[3] = molecular target: T1, PNP (purine nucleoside phosphorylase) (Escherichia coli, UniProt P0ABP8); experiment: Phosphorolysis of inosine vs. dideoxyinosine by PNP (basal activity, Lineweaver-Burke plot); type: biochemical, E. coli; conditions: apparent Km values
T1 sequence (P0ABP8 1-239): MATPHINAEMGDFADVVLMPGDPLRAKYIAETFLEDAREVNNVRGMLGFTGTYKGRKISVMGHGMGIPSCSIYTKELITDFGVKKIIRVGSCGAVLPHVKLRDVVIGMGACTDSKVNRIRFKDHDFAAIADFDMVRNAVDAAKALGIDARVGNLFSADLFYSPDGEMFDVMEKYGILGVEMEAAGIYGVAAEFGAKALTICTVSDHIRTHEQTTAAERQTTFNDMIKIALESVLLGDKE

[4] = molecular target: inosine monophosphate dehydrogenase (IMPDH) (Escherichia coli, UniProt P0ADG7); conditions: cited from earlier work
[5] = substrate: OC[C@H]1O[C@@H](n2cnc3c(O)ncnc32)[C@H](O)[C@@H]1O; experiment: Phosphorolysis of inosine vs. dideoxyinosine by PNP (basal activity, Lineweaver-Burke plot); type: biochemical, E. coli; conditions: other: substrate of PNP; reverse reaction (phosphorolysis, release of hypoxanthine) monitored with colorimetric assay of FIG. 7

Sequence of inosine monophosphate dehydrogenase (IMPDH) (P0ADG7 whole entry): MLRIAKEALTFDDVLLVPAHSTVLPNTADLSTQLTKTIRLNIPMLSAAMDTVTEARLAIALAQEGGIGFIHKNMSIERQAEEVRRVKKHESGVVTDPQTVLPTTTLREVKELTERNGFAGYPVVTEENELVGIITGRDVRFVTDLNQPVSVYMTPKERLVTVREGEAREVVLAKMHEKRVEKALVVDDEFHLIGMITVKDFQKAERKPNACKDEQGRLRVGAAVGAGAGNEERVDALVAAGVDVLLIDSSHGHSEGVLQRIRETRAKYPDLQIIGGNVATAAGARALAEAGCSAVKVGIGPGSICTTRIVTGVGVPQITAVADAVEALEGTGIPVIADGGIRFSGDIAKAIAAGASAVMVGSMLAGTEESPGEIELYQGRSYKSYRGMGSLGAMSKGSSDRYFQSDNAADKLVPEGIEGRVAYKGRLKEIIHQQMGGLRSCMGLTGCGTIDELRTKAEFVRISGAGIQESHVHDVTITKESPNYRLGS

## NC(=O)c1nc[nH]n1 [1,2,4-triazole carboxamide]
[1]
  susceptibility of HPRT mutants to triazole in vivo (versus wild type): > 2 fold
[2]
  lethality to transformed E. coli BL21(DE3): non-lethal

## O=c1[nH]cnc2c1ncn2[C@H]1CC[C@@H](CO)O1 [ddI, dideoxyinosine]
[3]
  Km of ddI relative to that of inosine: > 100 times

## NC(=O)c1ncn([C@@H]2O[C@H](COP(=O)(O)O)[C@@H](O)[C@H]2O)n1 [ribavirin-1-phosphate 5, ribavirin monophosphate]
[4]
  inhibition of IMPDH: potent competitive inhibitor
[4]; listed as Ribavirin monophosphate
  inhibition of IMPDH: competitive inhibitor

B1: PNP (purine nucleoside phosphorylase) (Escherichia coli K-12) (protein)
chain: MATPHINAEMGDFADVVLMPGDPLRAKYIAETFLEDAREVNNVRGMLGFTGTYKGRKISVMGHGMGIPSCSIYTKELITDFGVKKIIRVGSCGAVLPHVKLRDVVIGMGACTDSKVNRIRFKDHDFAAIADFDMVRNAVDAAKALGIDARVGNLFSADLFYSPDGEMFDVMEKYGILGVEMEAAGIYGVAAEFGAKALTICTVSDHIRTHEQTTAAERQTTFNDMIKIALESVLLGDKE
[5]
  Km: 56 µM
